Values after ≈ are worked out from the molar mass of the structure shown. Where two headings read alike, the source gives them in different places.
Columns and labels:
Format in all cases: cell-based
[1] = test system: Helicobacter pylori (Hp); assay: screening of antibacterial components of traditional Chinese drug, MIC against Hp; details: monomer alone
Text: The combination of different monomer compositions can resist bacteria, increase the action target of the composition, be conducive to improve the antibacterial effect and reduce the drug resistance of the composition. Therefore, in the present disclosure, according to the quality ratio of Zuojin pills, berberine, evolitrine, and tanshinone I are combined according to a certain quality ratio to inhibit Hp. This combination can synergistically enhance the inhibition of Hp, and is not easy to produce drug resistance, which has an extremely excellent effect on the treatment of Hp infection related diseases.

[2] = test system: Helicobacter pylori; assay: Chessboard method, synergistic inhibitory effect of two monomers (FIC); details: monomer used alone, 72 hours
Experimental: The compositions 1, 2, 3, 4 and 5 are prepared according to Examples 1, 2, 3, 4 and 5, respectively. • 1.2. Strain • (1) Helicobacter pylori strains: standard strains 26695, NSH57, MSD132 and G27 are presented by Dr. Hongkai Bi of Nanjing Medical University; clinical metronidazole drug-resistant strains, clarithromycin drug-resistant strains, levofloxacin drug-resistant strains, levofloxacin and metronidazole drug-resistant strains, clarithromycin and metronidazole drug-resistant strains, levofloxacin and clarithromycin and metronidazole multi drug-resistant strains (HPBS001, HPBS002, HPBS003, and the like) are provided by the Research Center for the Prevention and Treatment of Drug Resistant Microbial Infections of Youjiang Medical University for Nationalities. • (2) Non Helicobacter pylori strains: Staphylococcus aureus, Escherichia coli, Pseudomonas aeruginosa, Acinetobacter baumannii, Klebsiella pneumoniae, Candida albicans, Enterobacter cloacae, Campylobacter jejuni, Bacillus subtilis, Proteus mirabilis, Lactobacillus campylobacter, Stenotrophomonas maltophilia, Morganella morganii, Candida tropicalis, Staphylococcus haemolyticus, Acetobacter, Saccharomyces cerevisiae, Enterobacter hormaechei well is provided by the Research Center for the Prevention and Treatment of Drug Resistant Microbial Infections of Youjiang Medical University for Nationalities. • 1.3 Main culture media and reagents: Columbia culture medium, Brain Heart Infusion Broth, nutrient agar culture medium, nutrient broth culture medium, MH culture medium, Sabouraud culture medium, standard calf serum. • 1.4 Main instruments: three gas incubator, centrifuge, microplate reader, electronic balance, and the like. • 1.5 Consumable materials: EP tube, tip, centrifuge tube, and the like. • 2. […]

[3] = test system: Helicobacter pylori G27 strain; assay: Drug resistance test, induction with 1/4 MIC for 24 days
Text: Note: In 6:1:3 group, “>” refers to greater than 46.1+7. 7+23.1. • 2.4 Drug Resistance Test of Prepared 6:1:3 Composition • (1) The drug resistance of […] is detected with Helicobacter pylori G27 strain.

[4] = Helicobacter pylori, read-out: MIC

| SMILES | MIC [1, 4] | MIC [2, 4] | further results |
| --- | --- | --- | --- |
| COc1ccc2cc3[n+](cc2c1OC)CCc1cc2c(cc1-3)OCO2 [Berberine, berberine] | 16 to 32 µg/mL | 16 µg/mL |  |
| Cc1coc2c1C(=O)C(=O)c1c-2ccc2c(C)cccc12 [Tanshinone I, tanshinone I] |  |  | MIC [1]: 0.5 to 1 µg/mL; MIC [2]: Tanshinone I (1 μg/mL) |
| COc1ccc2c(OC)c3ccoc3nc2c1 [Evolitrine, evolitrine] | 16 to 32 µg/mL | 32 µg/mL |  |
| Cc1ncc([N+](=O)[O-])n1CCO [metronidazole] |  |  | MIC ([3]; Helicobacter pylori, G27STRAIN, before induction): 2 µg/mL (≈ 11.7 µM); MIC increase after induction ([3]; after 24 days of induction with 1/4 MIC, FIG. 3): 64 times |
